In one test the target is CDK1/Cyclin A (Homo sapiens, UniProt P06493+P20248+P78396). Nature of the test: Selectivity interaction (Enzymatic assay (Reaction Biology)) EUB0001632a CDK1. In kind it is protein-complex assay.
Test [1] deals with Phosphatidylinositol 4,5-bisphosphate 3-kinase catalytic subunit alpha isoform (Homo sapiens), P42336 [E545K]. Nature of the test: (§1) Selectivity interaction (Ambit KINOMEscan and KiNATiv profiling in Jurkat cells) EUB0000090b PIK3CA. In kind it is cell-based. Particulars: at 1 µM.
Test [2] has as its system Phosphatidylinositol 4,5-bisphosphate 3-kinase catalytic subunit alpha isoform (Homo sapiens), P42336 [Q546K]. The description is as §1. The format is cell-based. The settings on record: at 1 µM.
The target of test [3] is Phosphatidylinositol 4,5-bisphosphate 3-kinase catalytic subunit alpha isoform (Homo sapiens) (UniProt P42336). Described as §1. Particulars: at 1 µM. The format is cell-based.
The subject of test [4] is Phosphatidylinositol 4,5-bisphosphate 3-kinase catalytic subunit alpha isoform (Homo sapiens), P42336 [E545A]. Described as §1. The format is cell-based. The settings on record: at 1 µM.
The test system of test [5] is Phosphatidylinositol 4,5-bisphosphate 3-kinase catalytic subunit alpha isoform (Homo sapiens), P42336 [E542K]. The description is as §1. In kind it is cell-based. Particulars: at 1 µM.
Test [6] deals with T1, Serine/threonine-protein kinase D3 (Homo sapiens) (UniProt O94806).
T1 sequence (whole entry): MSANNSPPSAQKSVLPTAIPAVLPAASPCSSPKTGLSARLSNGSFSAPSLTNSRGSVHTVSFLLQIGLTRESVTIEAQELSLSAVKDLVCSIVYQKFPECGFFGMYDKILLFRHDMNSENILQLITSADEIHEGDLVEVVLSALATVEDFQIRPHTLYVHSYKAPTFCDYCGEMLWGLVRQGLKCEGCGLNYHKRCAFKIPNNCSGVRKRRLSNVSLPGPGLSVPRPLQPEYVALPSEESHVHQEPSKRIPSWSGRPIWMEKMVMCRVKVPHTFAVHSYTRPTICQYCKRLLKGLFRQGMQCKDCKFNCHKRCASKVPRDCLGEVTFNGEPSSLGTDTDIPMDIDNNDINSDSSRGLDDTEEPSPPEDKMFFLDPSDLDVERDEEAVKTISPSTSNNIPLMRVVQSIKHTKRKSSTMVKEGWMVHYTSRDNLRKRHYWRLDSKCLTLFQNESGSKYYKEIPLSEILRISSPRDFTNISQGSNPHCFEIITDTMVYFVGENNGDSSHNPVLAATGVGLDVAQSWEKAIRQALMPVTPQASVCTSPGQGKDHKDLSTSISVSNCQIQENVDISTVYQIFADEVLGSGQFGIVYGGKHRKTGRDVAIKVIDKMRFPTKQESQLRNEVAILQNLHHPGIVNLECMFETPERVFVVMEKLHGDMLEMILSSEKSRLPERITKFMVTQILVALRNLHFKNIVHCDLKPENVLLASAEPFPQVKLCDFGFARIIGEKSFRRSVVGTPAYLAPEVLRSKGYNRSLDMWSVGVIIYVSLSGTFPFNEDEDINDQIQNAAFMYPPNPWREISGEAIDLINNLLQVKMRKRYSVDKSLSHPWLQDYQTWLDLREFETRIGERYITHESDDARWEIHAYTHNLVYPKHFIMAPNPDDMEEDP
Nature of the test: Selectivity interaction (SelectScreen profiling (Invitrogen)) EUB0000607a PRKD3. Particulars: at 2 µM.

In test [7] the target is Sigma intracellular receptor 2 (Homo sapiens) (UniProt Q5BJF2). Nature of the test: Selectivity interaction (GPCR panel (PDSP screen)) EUB0000311b TMEM97. Particulars: at 10 µM.
The target of test [8] is T2, Aurora kinase A (Homo sapiens) (UniProt O14965).
T2 sequence (whole entry): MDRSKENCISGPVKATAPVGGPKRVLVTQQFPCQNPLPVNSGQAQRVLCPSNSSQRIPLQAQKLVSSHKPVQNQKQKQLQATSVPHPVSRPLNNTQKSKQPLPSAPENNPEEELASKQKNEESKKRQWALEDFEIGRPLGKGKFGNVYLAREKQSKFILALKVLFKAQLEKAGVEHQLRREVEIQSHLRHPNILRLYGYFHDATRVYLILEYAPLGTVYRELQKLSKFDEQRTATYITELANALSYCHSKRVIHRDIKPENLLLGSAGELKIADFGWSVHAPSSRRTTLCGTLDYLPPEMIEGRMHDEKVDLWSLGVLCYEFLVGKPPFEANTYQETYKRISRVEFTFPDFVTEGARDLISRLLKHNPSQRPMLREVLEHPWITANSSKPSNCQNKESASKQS
Kind of test: Selectivity interaction (KinomeScan (DiscoverX)) EUB0001619a STK6. Particulars: at 1 µM.

For test [9], the target named is Protein kinase C theta type (Homo sapiens, UniProt Q04759). Kind of test: Selectivity interaction (KinomeScan (DiscoverX)) EUB0000695a PRKCQ. Particulars: at 100 nM.
Test [10] concerns the target Maternal embryonic leucine zipper kinase (Homo sapiens) (UniProt Q14680). Kind of test: Selectivity interaction (KinomeScan (DiscoverX)) EUB0000045b MELK.
The target in test [11] is cAMP-dependent protein kinase catalytic subunit alpha (Homo sapiens, UniProt P17612). Kind of test: Selectivity interaction (KinomeScan (DiscoverX)) EUB0000045b PRKACA.
Test [12] addresses T3, Cyclin-dependent kinase 11A (Homo sapiens) (UniProt Q9UQ88).
T3 sequence (whole entry): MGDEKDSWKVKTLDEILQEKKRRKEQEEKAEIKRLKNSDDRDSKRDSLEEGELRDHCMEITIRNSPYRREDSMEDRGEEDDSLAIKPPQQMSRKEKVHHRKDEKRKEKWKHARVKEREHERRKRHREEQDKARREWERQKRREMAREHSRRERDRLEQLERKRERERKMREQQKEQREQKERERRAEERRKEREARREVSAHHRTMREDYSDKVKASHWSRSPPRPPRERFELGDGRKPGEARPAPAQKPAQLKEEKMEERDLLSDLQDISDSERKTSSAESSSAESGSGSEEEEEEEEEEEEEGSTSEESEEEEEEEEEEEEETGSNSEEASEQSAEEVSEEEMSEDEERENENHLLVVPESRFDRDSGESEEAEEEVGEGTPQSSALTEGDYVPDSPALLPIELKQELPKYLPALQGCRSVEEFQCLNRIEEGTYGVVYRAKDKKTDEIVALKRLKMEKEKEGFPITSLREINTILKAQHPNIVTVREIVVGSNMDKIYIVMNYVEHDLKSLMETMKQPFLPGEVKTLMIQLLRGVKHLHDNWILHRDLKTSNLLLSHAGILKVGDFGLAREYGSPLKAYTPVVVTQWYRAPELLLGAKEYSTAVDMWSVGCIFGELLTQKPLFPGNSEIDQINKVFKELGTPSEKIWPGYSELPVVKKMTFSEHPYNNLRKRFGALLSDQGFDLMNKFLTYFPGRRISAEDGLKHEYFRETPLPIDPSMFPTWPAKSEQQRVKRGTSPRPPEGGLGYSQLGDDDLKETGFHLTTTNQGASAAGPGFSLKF
Nature of the test: Selectivity interaction (KinomeScan (DiscoverX)) EUB0000045b CDK11A.

Test [13] deals with Vascular endothelial growth factor receptor 1 (Homo sapiens) (UniProt P17948). Nature of the test: Selectivity interaction (Upstate Kinase Profiler service (Millipore)) EUB0000056c FLT1. Particulars: at 1 µM.

A value given as a limit tells only on which side of the number the result lay.

As usually defined, the IC50 is the concentration at which inhibition is half-maximal. A lower IC50 goes with greater potency.

Maternal embryonic leucine zipper kinase (Homo sapiens), sequence (Q14680 whole entry, looked up): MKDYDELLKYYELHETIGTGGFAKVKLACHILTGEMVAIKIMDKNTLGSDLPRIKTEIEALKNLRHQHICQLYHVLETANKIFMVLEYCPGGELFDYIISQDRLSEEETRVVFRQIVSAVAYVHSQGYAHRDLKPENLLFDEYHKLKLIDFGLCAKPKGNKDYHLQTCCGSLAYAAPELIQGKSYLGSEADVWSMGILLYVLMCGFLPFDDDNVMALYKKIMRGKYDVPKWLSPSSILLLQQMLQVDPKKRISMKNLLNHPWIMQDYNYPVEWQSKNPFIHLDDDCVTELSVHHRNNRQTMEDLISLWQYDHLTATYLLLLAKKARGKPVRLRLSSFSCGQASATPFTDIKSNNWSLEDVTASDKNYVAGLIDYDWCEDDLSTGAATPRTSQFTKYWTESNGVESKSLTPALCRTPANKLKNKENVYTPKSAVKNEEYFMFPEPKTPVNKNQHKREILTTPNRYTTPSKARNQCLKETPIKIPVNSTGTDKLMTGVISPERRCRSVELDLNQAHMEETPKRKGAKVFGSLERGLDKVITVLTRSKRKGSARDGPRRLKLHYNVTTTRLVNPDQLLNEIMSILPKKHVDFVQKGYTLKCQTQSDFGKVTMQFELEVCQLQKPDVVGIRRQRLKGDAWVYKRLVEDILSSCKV
Phosphatidylinositol 4,5-bisphosphate 3-kinase catalytic subunit alpha isoform (Homo sapiens), P42336 [E542K], sequence (P42336 whole entry E542K, canonical isoform): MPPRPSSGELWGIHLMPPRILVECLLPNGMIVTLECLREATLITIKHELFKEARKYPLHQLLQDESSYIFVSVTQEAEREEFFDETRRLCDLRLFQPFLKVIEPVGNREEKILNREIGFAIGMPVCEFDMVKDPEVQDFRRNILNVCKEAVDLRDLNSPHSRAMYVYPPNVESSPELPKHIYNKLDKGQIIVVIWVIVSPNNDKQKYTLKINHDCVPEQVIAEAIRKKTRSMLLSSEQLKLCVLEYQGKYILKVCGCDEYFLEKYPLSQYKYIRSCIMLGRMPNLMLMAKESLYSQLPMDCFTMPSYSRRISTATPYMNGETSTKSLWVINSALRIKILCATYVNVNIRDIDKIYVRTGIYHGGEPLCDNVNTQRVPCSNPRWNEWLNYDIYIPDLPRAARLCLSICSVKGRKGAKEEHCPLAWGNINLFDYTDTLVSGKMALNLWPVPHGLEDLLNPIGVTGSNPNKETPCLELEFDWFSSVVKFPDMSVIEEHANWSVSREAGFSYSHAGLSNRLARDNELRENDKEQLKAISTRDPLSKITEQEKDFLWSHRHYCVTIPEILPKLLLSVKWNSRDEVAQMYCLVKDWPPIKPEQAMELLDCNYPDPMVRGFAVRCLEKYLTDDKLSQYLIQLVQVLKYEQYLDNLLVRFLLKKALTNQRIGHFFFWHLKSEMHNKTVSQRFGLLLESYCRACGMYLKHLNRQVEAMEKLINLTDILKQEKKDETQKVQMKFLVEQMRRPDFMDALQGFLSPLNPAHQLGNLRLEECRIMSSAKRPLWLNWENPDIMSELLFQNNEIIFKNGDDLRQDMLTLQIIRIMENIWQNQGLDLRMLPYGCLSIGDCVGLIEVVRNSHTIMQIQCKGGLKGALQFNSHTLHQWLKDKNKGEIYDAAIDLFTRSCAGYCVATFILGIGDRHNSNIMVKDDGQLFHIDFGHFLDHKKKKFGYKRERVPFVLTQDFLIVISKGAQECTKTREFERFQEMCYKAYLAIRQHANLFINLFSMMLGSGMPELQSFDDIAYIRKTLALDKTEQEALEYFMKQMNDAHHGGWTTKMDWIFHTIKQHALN
Vascular endothelial growth factor receptor 1 (Homo sapiens), sequence (P17948 whole entry): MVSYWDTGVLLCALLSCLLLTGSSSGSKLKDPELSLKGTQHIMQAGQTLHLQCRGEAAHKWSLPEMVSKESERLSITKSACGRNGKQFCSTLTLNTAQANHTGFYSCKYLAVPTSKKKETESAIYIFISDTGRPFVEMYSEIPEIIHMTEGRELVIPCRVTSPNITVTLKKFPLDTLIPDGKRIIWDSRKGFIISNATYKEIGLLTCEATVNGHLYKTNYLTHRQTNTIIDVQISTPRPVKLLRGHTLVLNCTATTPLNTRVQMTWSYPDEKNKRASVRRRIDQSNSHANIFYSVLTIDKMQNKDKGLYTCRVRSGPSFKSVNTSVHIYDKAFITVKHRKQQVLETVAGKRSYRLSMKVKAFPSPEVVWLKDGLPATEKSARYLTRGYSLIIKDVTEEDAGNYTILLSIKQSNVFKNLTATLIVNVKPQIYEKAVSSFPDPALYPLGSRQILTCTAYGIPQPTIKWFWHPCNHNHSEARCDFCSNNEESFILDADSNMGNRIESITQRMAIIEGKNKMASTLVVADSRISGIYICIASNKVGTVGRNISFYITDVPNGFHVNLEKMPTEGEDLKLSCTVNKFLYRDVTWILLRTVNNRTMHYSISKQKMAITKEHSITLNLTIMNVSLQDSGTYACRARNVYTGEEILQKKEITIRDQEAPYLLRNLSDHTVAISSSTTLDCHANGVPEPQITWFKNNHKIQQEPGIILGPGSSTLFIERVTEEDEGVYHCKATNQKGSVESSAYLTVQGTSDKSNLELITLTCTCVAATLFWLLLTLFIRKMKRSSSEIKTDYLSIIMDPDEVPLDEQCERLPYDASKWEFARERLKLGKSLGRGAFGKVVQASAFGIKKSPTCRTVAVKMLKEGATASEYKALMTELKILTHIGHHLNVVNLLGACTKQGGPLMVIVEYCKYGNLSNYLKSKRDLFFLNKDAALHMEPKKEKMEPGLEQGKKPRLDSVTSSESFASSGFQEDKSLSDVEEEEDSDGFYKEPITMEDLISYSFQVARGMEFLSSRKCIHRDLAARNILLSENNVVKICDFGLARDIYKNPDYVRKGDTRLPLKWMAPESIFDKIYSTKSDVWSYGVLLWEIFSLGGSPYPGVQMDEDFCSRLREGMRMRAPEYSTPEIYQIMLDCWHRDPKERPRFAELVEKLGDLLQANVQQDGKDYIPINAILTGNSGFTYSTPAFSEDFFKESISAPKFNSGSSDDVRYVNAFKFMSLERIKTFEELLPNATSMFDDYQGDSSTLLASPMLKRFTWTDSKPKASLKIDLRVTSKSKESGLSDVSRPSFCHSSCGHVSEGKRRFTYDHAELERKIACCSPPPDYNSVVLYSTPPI
Sigma intracellular receptor 2 (Homo sapiens), sequence (Q5BJF2 whole entry): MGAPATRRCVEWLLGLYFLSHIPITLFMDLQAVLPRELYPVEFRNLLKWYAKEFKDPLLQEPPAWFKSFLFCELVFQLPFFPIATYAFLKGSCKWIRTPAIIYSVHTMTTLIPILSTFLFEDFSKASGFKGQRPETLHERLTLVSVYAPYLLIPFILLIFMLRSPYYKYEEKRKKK
Protein kinase C theta type, sequence (Q04759 whole entry, looked up): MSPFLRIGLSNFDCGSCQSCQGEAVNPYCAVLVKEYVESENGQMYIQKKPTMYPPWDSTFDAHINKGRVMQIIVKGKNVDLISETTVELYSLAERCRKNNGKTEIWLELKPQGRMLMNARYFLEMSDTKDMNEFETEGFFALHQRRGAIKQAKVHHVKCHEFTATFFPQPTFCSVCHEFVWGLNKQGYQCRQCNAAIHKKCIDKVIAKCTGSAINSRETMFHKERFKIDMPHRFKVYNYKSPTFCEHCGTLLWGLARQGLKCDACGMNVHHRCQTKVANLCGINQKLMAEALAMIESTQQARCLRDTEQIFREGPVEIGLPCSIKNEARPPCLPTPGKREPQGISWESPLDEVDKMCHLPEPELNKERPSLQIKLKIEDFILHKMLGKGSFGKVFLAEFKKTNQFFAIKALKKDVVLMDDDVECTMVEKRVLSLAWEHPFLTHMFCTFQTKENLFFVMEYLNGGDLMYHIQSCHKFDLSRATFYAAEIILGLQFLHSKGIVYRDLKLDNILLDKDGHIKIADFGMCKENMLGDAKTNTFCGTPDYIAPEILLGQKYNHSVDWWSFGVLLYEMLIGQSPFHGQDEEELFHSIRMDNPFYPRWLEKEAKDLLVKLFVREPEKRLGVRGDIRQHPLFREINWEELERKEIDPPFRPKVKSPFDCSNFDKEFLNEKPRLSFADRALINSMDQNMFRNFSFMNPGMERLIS
Phosphatidylinositol 4,5-bisphosphate 3-kinase catalytic subunit alpha isoform (Homo sapiens), sequence (P42336 whole entry, canonical isoform): as the sequence (P42336 whole entry E542K, canonical isoform) above, with K542E counted along it
Phosphatidylinositol 4,5-bisphosphate 3-kinase catalytic subunit alpha isoform (Homo sapiens), P42336 [E545A], sequence (P42336 whole entry E545A, canonical isoform): as the sequence (P42336 whole entry E542K, canonical isoform) above, with K542E, E545A counted along it
Phosphatidylinositol 4,5-bisphosphate 3-kinase catalytic subunit alpha isoform (Homo sapiens), P42336 [E545K], sequence (P42336 whole entry E545K, canonical isoform): as the sequence (P42336 whole entry E542K, canonical isoform) above, with K542E, E545K counted along it
Phosphatidylinositol 4,5-bisphosphate 3-kinase catalytic subunit alpha isoform (Homo sapiens), P42336 [Q546K], sequence (P42336 whole entry Q546K, canonical isoform): as the sequence (P42336 whole entry E542K, canonical isoform) above, with K542E, Q546K counted along it

`Cn1cc(-n2cnc3c(NCc4nc5cc(Cl)c(Cl)cc5[nH]4)nc(N4CCOCC4)nc32)cn1`: the IC50 on CDK1/Cyclin A is greater than 10 µM.

On to `CN(C)C/C=C/C(=O)Nc1ccc(C(=O)N2CCCC(Nc3ncc(Cl)c(-c4c[nH]c5ccccc45)n3)C2)cc1` (configuration not stated), for which the % of control in test [1] was found to be 99%; in [2], 98%; in test [3], 92%; in [4], 83%; in test [5], 93%.

As for `CNC(=O)Nc1ccc(-c2nc(N3CC4CCC(C3)O4)c3cnn(C4CCC5(CC4)OCCO5)c3n2)cc1`, the % of inhibition in test [6] worked out at 4%.

As for `CCc1ccccc1C(=O)Nc1n[nH]c2c(C)c(F)c(C3C(C#N)=C(C)N(C)C(C)=C3C#N)cc12` [BAY-3827], in test [7], the % of inhibition came to 78.3%.

Turning to `N#Cc1cccc(-c2c[nH]c3ncnc(N4CCOCC4)c23)c1`, in test [8], the % of control came to 57%.

For the compound `Cc1cc(F)c(C(=O)Nc2cccc(-c3nncn3C(C)C)n2)cc1-n1cnc(C2CC2)c1`, the % of control in test [9] was 75%.

As for `C=CC(=O)Nc1cc(-n2c(=O)ccc3cnc4ccc(-c5ccc(NS(C)(=O)=O)cc5)cc4c32)ccc1C`, the % of control was found to be 100% in [10] (at 1 µM); 75% in [10] (at 10 µM); 83% in [11] (at 1 µM); 100% in test [11] (at 10 µM); 90% in test [12] (at 1 µM); 44% in test [12] (at 10 µM).

In test [13], `Cc1ccc(-c2ccc3c(ccc4sc5c(c43)NC[C@@H](C)NC5=O)n2)cn1` showed a % of inhibition of 21%.

Source of the values: ChEMBL document CHEMBL5465560, “Selectivity Literature for EUbOPEN Chemogenomic Library” (2024).
